Results as given in US20210322327A1, “EXTRACELLULAR VESICLES COMPRISING STING-AGONIST” (Codiak BioSciences, Inc., priority 2018, published 2021).

Key:
[1] = Plasma pharmacokinetics after intravenous injection; assay type: in vivo, C57BL/6 mice; settings: 20 μg free
Procedure: To examine the pharmacokinetics of STING agonist in mouse plasma, naïve C57BL/6 mice were injected intravenously with 20 μg of free 3-3 cAIMPdFSH, or 0.1 μg, 0.3 μg, 0.6 μg 3-3 cAIMPdFSH loaded in PTGFRN-overexpressing exosomes. One, five, ten, and thirty minutes injection, blood was taken, and plasma were prepared. The concentration of 3-3 cAIMPdFSH was measured by LC-MS/MS, as described in Example 1.

[2] = system: human peripheral blood mononuclear cells (PBMCs); assay: IFNβ production in PBMCs treated with exosome-encapsulated or free STING agonist; assay type: cell-based; settings: free STING agonists, human PBMCs overnight
Procedure: Exosome-encapsulated STING agonist and free STING agonist were tested for activity in human peripheral blood mononuclear cells (PBMCs). PBMCs were isolated from fresh human blood by centrifugation over a layer of Lymphoprep at 1000×g for 15 minutes. The resulting buffy coat was washed in PBS and counted. PBMCs were plated in 96-well U-bottom plates. Titrations of the exosome-encapsulated (Exo-STING agonist) or free STING agonist were prepared in a separate U-bottom plate to perform dose-response studies. The exosome-encapsulated or free STING agonist was added to the PBMCs and incubated at 37° C. overnight. General activation of PBMCs by the STING agonist was detected by measuring the amount of IFNβ in the supernatant. […] To understand which cell types in PBMCs are differentially affected by Exo-STING agonist, monocyte and dendritic cell activation was measured. […] Monocytes were robustly activated by the STING agonist alone with over 90% becoming activated at micromolar concentrations of the agonist. […]
HEK293SF cells overexpressing PTGFRN were grown in shake flasks and the resulting exosomes were purified by Optiprep™ density gradient ultracentrifugation as described in the Methods. […] Loading was quantified as described in Example 1. […] Activation of PBMCs by the STING agonists was detected by measuring the amount of IFNβ in the supernatant. […]

[3] = system: B16F10 murine melanoma cells; assay: Advanced B16F10 melanoma tumor growth; assay type: in vivo, C57BL/6 mice; settings: days 10, 13, 16
Procedure: Treatment was started when tumor volume reached ˜ 50 mm3. To test the activity in advanced tumor, C57BL/6 mice were inoculated subcutaneously with 1×10^6 B16F10 murine melanoma cells (n=5 mice per group) and waited until tumor volume reached ˜100 mm^3. Ten, thirteen, and sixteen days post-inoculation, the mice were injected intratumorally with exosomes, 30 μg of free 3-3 cAIMPdFSH, 0.3 μg of free 3-3 cAIMPdFSH, 0.1 μg of 3-3 cAIMPdFSH loaded in PTGFRN-overexpressing exosomes, or 0.3 μg of 3-3 cAIMPdFSH loaded in PTGFRN-overexpressing exosomes. Tumor volumes were measured daily until day 28, and animals were sacrificed when tumor volume reached 2000 mm^3.

[4] = system: peritoneal cells and splenocytes; assay: Immune cell activation (CD86) in peritoneum and spleen 24 hours after intraperitoneal dose; assay type: in vivo, C57BL/6 mice; settings: 20 μg single IP dose
Procedure: A second experiment similar to the previous study was carried out with single-dose IP administration, and extended to 24 hours. Peritoneal cells and splenocytes were isolated from treated mice, and cell activation was measured by detection of CD86.

[5] = system: B16F10 murine melanoma cells; assay: B16F10 primary tumor and re-challenge, durable T cell responses; assay type: in vivo, C57BL/6 mice
Procedure: Six, nine, and twelve days post-inoculation, the tumors were injected intratumorally with PBS, exosomes, 100 μg of free ML RR-S2 CDA, or 0.2 μg 3-3 cAIMPdFSH loaded in PTGFRN-overexpressing exosomes. […] Five additional naïve mice were inoculated with the same tumor cell preparation and treated daily with PBS to ensure cell viability and growth kinetics. By day 37 (17 days post-challenge) all mice in the PBS group were sacrificed.

| SMILES | half-life in plasma [1] | IFNβ induction [2] | tumor growth compared to exosomes control ([3]; 0.3 μg free, start ~100 mm^3) | tumor burden compared to exosomes control ([3]; 30 μg free) | peritoneal cell activation (CD86) [4] | spleen immune cell activation (CD86) [4] | animals in which re-challenge tumor growth was not inhibited ([5]; 100 μg free group, re-challenged day 20, read day 37) | animals that showed complete response (primary tumor) ([5]; 100 μg free, intratumoral days 6, 9, 12) |
| --- | --- | --- | --- | --- | --- | --- | --- | --- |
| Nc1ncnc2c1ncn2[C@@H]1O[C@@H]2COP(=O)(S)O[C@H]3[C@@H](F)[C@H](n4cnc5c(=O)[nH]cnc54)O[C@@H]3COP(O)(=S)O[C@H]2[C@H]1F (stereo partly drawn) [3-3 cAIMPdFSH, 3′3′-cAIMPdFSH] | 1.2 min | induced IFNβ to a similar extent | tumor growth was not affected | great reduction of tumor burden |  |  |  |  |
| Nc1ncnc2c1ncn2[C@@H]1O[C@@H]2COP(O)(=S)O[C@@H]3C(O)[C@@H](COP(O)(=S)O[C@H]2[C@H]1O)O[C@H]3n1cnc2c(N)ncnc21 (stereo partly drawn) [ML RR-S2 CDA] |  | induced IFNβ to a similar extent |  |  | activation of peritoneal B cells, macrophages, monocytes and conventional dendritic cells (cDCs) | moderate levels of immune cell activation | 10 out of 10 | ten |
